According to ChEMBL document CHEMBL5543084, “Development of cannabidiol derivatives as potent broad-spectrum antibacterial agents with membrane-disruptive mechanism” (Eur J Med Chem, 2024):
In brackets after ≈: the same amount, converted by molar mass.

How the values were obtained:
[1] = tested on: Klebsiella pneumoniae; experiment: Antibacterial activity against Klebsiella pneumoniae ATCC 14581 assessed as inhibition of bacterial growth incubated for 24 hrs by broth dilution method; type: functional
[2] = tested on: Staphylococcus aureus; experiment: Antibacterial activity against methicillin-resistant Staphylococcus aureus N315 assessed as inhibition of bacterial growth incubated for 24 hrs by broth dilution method; type: functional
[3] = tested on: Staphylococcus aureus; experiment: Antibacterial activity against Staphylococcus aureus ATCC 29213 assessed as inhibition of bacterial growth incubated for 24 hrs by broth dilution method; type: functional
[4] = tested on: Acinetobacter baumannii; experiment: Antibacterial activity against Acinetobacter baumannii R2889 assessed as inhibition of bacterial growth incubated for 24 hrs by broth dilution method; type: functional
[5] = tested on: Acinetobacter baumannii; experiment: Antibacterial activity against Acinetobacter baumannii ATCC 17978 assessed as inhibition of bacterial growth incubated for 24 hrs by broth dilution method; type: functional
[6] = tested on: Klebsiella pneumoniae; experiment: Antibacterial activity against Klebsiella pneumoniae ATCC 10031 assessed as inhibition of bacterial growth incubated for 24 hrs by broth dilution method; type: functional
[7] = Hemolytic activity against rabbit blood cells incubated for 1 hr relative to control; type: toxicity, cell-based, Oryctolagus cuniculus, Erythrocyte; conditions: rabbit blood cells (erythrocytes)
[8] = tested on: Staphylococcus aureus; experiment: Antibacterial activity against methicillin-resistant Staphylococcus aureus NCTC 10442 assessed as inhibition of bacterial growth incubated for 24 hrs by broth dilution method; type: functional
[9] = tested on: Pseudomonas aeruginosa; experiment: Antibacterial activity against Pseudomonas aeruginosa ATCC 9027 assessed as inhibition of bacterial growth incubated for 24 hrs by broth dilution method; type: functional
[10] = tested on: Escherichia coli; experiment: Antibacterial activity against Escherichia coli ATCC 25922 assessed as inhibition of bacterial growth incubated for 24 hrs by broth dilution method; type: functional

Structure (SMILES)	MIC [1]	MIC [2]	MIC [3]	MIC [4]	MIC [5]	MIC [6]	HC50 at 1 h [7]	MIC [8]	MIC [9]	MIC [10]
C=C(C)[C@@H]1CCC(C)=C[C@H]1c1c(OCCCCCCCCCCNC(=N)N)cc(CCCCC)cc1OCCCCCCCCCCNC(=N)N	> 50 µg/mL	> 50 µg/mL	50 µg/mL (≈ 70.5 µM)	> 50 µg/mL	> 50 µg/mL	> 50 µg/mL	> 200 µg/mL	50 µg/mL (≈ 70.5 µM)	> 50 µg/mL	> 50 µg/mL
C=C(C)[C@@H]1CCC(C)=C[C@H]1c1c(OCCCCCNC(=N)N)cc(CCCCC)cc1OCCCCCNC(=N)N	3.12 µg/mL (≈ 5.49 µM)	1.56 µg/mL (≈ 2.74 µM)	3.12 µg/mL (≈ 5.49 µM)	3.12 µg/mL (≈ 5.49 µM)	3.12 µg/mL (≈ 5.49 µM)	1.56 µg/mL (≈ 2.74 µM)	60.5 µg/mL	0.78 µg/mL (≈ 1.37 µM)	25 µg/mL (≈ 43.9 µM)	3.12 µg/mL (≈ 5.49 µM)
C=C(C)[C@@H]1CCC(C)=C[C@H]1c1c(OCCCCN)cc(CCCCC)cc1OCCCCN	12.5 µg/mL (≈ 27.4 µM)	3.12 µg/mL (≈ 6.84 µM)	3.12 µg/mL (≈ 6.84 µM)	3.12 µg/mL (≈ 6.84 µM)	3.12 µg/mL (≈ 6.84 µM)	6.25 µg/mL (≈ 13.7 µM)	141 µg/mL	3.12 µg/mL (≈ 6.84 µM)	50 µg/mL (≈ 109 µM)	3.12 µg/mL (≈ 6.84 µM)
C=C(C)[C@@H]1CCC(C)=C[C@H]1c1c(OCC(=O)N[C@@H](CCCNC(=N)N)C(N)=O)cc(CCCCC)cc1OCC(=O)N[C@@H](CCCNC(=N)N)C(N)=O	> 50 µg/mL	12.5 µg/mL (≈ 16.9 µM)	12.5 µg/mL (≈ 16.9 µM)	> 50 µg/mL	50 µg/mL (≈ 67.5 µM)	> 50 µg/mL	> 200 µg/mL	12.5 µg/mL (≈ 16.9 µM)	50 µg/mL (≈ 67.5 µM)	> 50 µg/mL
C=C(C)[C@@H]1CCC(C)=C[C@H]1c1c(OCC(=O)N[C@@H](CCCCN)C(=O)OC)cc(CCCCC)cc1OCC(=O)N[C@@H](CCCCN)C(=O)OC	> 50 µg/mL	25 µg/mL (≈ 35 µM)	25 µg/mL (≈ 35 µM)	50 µg/mL (≈ 69.9 µM)	50 µg/mL (≈ 69.9 µM)	50 µg/mL (≈ 69.9 µM)	116 µg/mL	25 µg/mL (≈ 35 µM)	> 50 µg/mL	50 µg/mL (≈ 69.9 µM)
C=C(C)[C@@H]1CCC(C)=C[C@H]1c1c(OCCCCCN)cc(CCCCC)cc1OCCCCCN	6.25 µg/mL (≈ 12.9 µM)	3.12 µg/mL (≈ 6.45 µM)	3.12 µg/mL (≈ 6.45 µM)	12.5 µg/mL (≈ 25.8 µM)	6.25 µg/mL (≈ 12.9 µM)	6.25 µg/mL (≈ 12.9 µM)	65.9 µg/mL	1.56 µg/mL (≈ 3.22 µM)	> 50 µg/mL	6.25 µg/mL (≈ 12.9 µM)
C=C(C)[C@@H]1CCC(C)=C[C@H]1c1c(OCCCCN(CCCC)CCCC)cc(CCCCC)cc1OCCCCN(CCCC)CCCC	> 50 µg/mL	> 50 µg/mL	> 50 µg/mL	> 50 µg/mL	> 50 µg/mL	> 50 µg/mL	> 200 µg/mL	> 50 µg/mL	> 50 µg/mL	> 100 µg/mL
C=C(C)[C@@H]1CCC(C)=C[C@H]1c1c(OCCCCN2CCCC2)cc(CCCCC)cc1OCCCCN1CCCC1	25 µg/mL (≈ 44.3 µM)	3.12 µg/mL (≈ 5.53 µM)	3.12 µg/mL (≈ 5.53 µM)	12.5 µg/mL (≈ 22.1 µM)	25 µg/mL (≈ 44.3 µM)	12.5 µg/mL (≈ 22.1 µM)	174 µg/mL	3.12 µg/mL (≈ 5.53 µM)	25 µg/mL (≈ 44.3 µM)	12.5 µg/mL (≈ 22.1 µM)
C=C(C)[C@@H]1CCC(C)=C[C@H]1c1c(OCCCCN(CC)CC)cc(CCCCC)cc1OCCCCN(CC)CC	> 50 µg/mL	6.25 µg/mL (≈ 11 µM)	6.25 µg/mL (≈ 11 µM)	50 µg/mL (≈ 87.9 µM)	> 50 µg/mL	50 µg/mL (≈ 87.9 µM)	> 200 µg/mL	12.5 µg/mL (≈ 22 µM)	> 50 µg/mL	> 50 µg/mL
C=C(C)[C@@H]1CCC(C)=C[C@H]1c1c(OCC(=O)O)cc(CCCCC)cc1OCC(=O)O	> 50 µg/mL	> 50 µg/mL	> 50 µg/mL	> 50 µg/mL	> 50 µg/mL	> 50 µg/mL	> 200 µg/mL	> 50 µg/mL	> 50 µg/mL	> 50 µg/mL
C=C(C)[C@@H]1CCC(C)=C[C@H]1c1c(O)cc(CCCCC)cc1O [CANNABIDIOL]	> 50 µg/mL	1.56 µg/mL (≈ 4.96 µM)	3.12 µg/mL (≈ 9.94 µM)	> 50 µg/mL	> 50 µg/mL	> 50 µg/mL	> 200 µg/mL	3.12 µg/mL (≈ 9.94 µM)	> 50 µg/mL	> 100 µg/mL
C=C(C)[C@@H]1CCC(C)=C[C@H]1c1c(OCCCCCCBr)cc(CCCCC)cc1OCCCCCCBr	> 50 µg/mL	> 50 µg/mL	> 50 µg/mL	> 50 µg/mL	> 50 µg/mL	> 50 µg/mL	> 200 µg/mL	> 50 µg/mL	> 50 µg/mL	> 100 µg/mL
CN[C@H](CC(C)C)C(=O)N[C@H]1C(=O)N[C@@H](CC(N)=O)C(=O)N[C@H]2C(=O)N[C@H]3C(=O)N[C@H](C(=O)N[C@H](C(=O)O)c4cc(O)cc(O)c4-c4cc3ccc4O)[C@H](O)c3ccc(c(Cl)c3)Oc3cc2cc(c3O[C@@H]2O[C@H](CO)[C@@H](O)[C@H](O)[C@H]2O[C@H]2C[C@](C)(N)[C@H](O)[C@H](C)O2)Oc2ccc(cc2Cl)[C@H]1O [VANCOMYCIN]	–	1.56 µg/mL (≈ 1.08 µM)	0.78 µg/mL (≈ 0.538 µM)	–	–	–	> 200 µg/mL	1.56 µg/mL (≈ 1.08 µM)	–	> 50 µg/mL
